# From patent US7749548B2, “Composite for the improvement of the smell of the armpit” (Ajou Medics Co., Ltd., priority 2004, dated 2010)
# How the values were obtained:
# Assay type in all cases: in vivo, human
# [1] = tested on: sweat bromidrosis (axillary odor) of volunteers; assay: Self-assessment of improvement of armpit odor by individual queries, 4 weeks of spraying twice a day; details: after 4 weeks
# From the text: 1. Application of Medical Treatment Composition of Example 1
# 2) Volunteers are selected from the group who can smell the ordor of sweat bromidrosis by sanitary cotton method and who smell over “mild” class.
# 3) Fifteen volunteers who were fitted for the above criteria and smell over “mild” class were selected.
# (§1) Group I Test group with the composition of example 1
# (§2) No one was allowed to use other cosmetics, perfume, and anti-germ soap not to influence any result.
# Subjective judgment of odor degree through individual queries, which include:
# 4) degrees of improvement of odor level during the period of application; and
# D) Percentage of Improvement by Self-Assessment
# The degree of improvement of ordor after 4 weeks were measured by self-assessment. All of 15 persons replied over 50% of improvement in the experimental group, while 10 persons in comparison group expressed positive improvement and four persons' replied negative.
# [2] = Side-effects reported by the volunteers during the 4-week application; details: 4 weeks, twice a day
# [3] = tested on: axillary odor of volunteers with sweat bromidrosis; assay: Measurement of axillary odor by sanitary cotton, graded by two medical doctors
# From the text: 1) Sanitary cottons are kept in both armpits for ten minutes by two medical doctors' inspection of armpit odor for classification of 4 grades.
# “minimal” is almost smell-less;
# “mild” is available smell within distance of 15 cm;
# “moderate” is further than distance of 15 cm; and
# “severe” is beyond the distance of 30 cm.
# as §1, §2
# Measurements of axillary odor were decided according to the smell degree by means of sanitary cotton, which were classified into four (4) grades. Namely, sanitary cottons are kept in both armpits for ten minutes by two medical doctors' inspection of armpit odor for classification of 4 grades as shown in the Table 1:
# (2) Judgment of Results: After two (2) and four (4) weeks of the application of the composition, the odor grades were judged by means of sanitary cottons from both armpits of the participants.
# Measurement of axillary ordor was carried out by two medical doctors by using sanitary cottons in order to evaluate objectively as shown below
# [4] = sprayed twice a day in armpit, 15 volunteers
# [5] = 15 volunteers, objective odor grade
structure (smiles),measurement,setting,value
"CCO [80% ethanol, ethanol]",Persons who expressed positive improvement (self-assessment),[1]; of 15,10 persons
same,Persons who replied negative (self-assessment),[1]; of 15,four
same,Percentage of improvement by self-assessment: Got worse,[1]; [4],0 (0%) persons (%)
same,Percentage of improvement by self-assessment: Improved 25%,[1]; [4],1 (7%) persons (%)
same,Percentage of improvement by self-assessment: Improved 50%,[1]; [4],2 (13%) persons (%)
same,Percentage of improvement by self-assessment: Improved 75%,[1]; [4],7 (47%) persons (%)
same,Percentage of improvement by self-assessment: Improved 100%,[1]; [4],1 (7%) persons (%)
same,Percentage of improvement by self-assessment: Not applicable,[1]; [4],4 (27%) persons (%)
same,Number and percentage of side-effect: No side-effect,[2],12 (80%) persons (%)
same,Number and percentage of side-effect: Side effect,[2]; slight tingle feel right after application,3 (20%) persons (%)
same,Degree of improvement: 1stage of improvement,"[3]; 15 volunteers, after 4 weeks",6 (40%) persons (%)
same,Degree of improvement: 2 stage or more of improvement,"[3]; 15 volunteers, after 4 weeks",1 (7%) persons (%)
same,Degree of improvement: no improvement,"[3]; 15 volunteers, after 4 weeks",8 (53%) persons (%)
same,Initiating period of improvement: After 2 weeks,[3]; [5],1 (7%) persons (%)
same,Initiating period of improvement: Not improved,[3]; [5],8 (53%) persons (%)
same,Initiating period of improvement: Within 2 weeks,[3]; [5],6 (40%) persons (%)
same,Persons who showed improvement of odor grade,"[3]; after 4 weeks, out of 15",7 persons
same,Persons among the improved who showed 2 stages or more of improvement,"[3]; after 4 weeks, listed as Group II",one and One
same,Persons among the improved with improvement after two weeks application,[3]; after two weeks application,6 persons
